The text below walks through data of patent EP1366765A1, “Use of matrix metalloproteinase inhibitors for treating neurological disorders and promoting wound healing” (priority 1996, dated 1998).

pIC50: −log10 of the molar value. Structures can show the parent of a compound that is named as a salt. Where a SMILES comes first, the peptide text is derived from it. The star is where a group is joined. Hydrocinnamoyl = O=C(CCc1ccccc1)*; Tfa = O=C(C(F)(F)F)*

One assay addresses T1, MMP-1 (Homo sapiens, UniProt P03956).
T1 sequence (P03956 100-469): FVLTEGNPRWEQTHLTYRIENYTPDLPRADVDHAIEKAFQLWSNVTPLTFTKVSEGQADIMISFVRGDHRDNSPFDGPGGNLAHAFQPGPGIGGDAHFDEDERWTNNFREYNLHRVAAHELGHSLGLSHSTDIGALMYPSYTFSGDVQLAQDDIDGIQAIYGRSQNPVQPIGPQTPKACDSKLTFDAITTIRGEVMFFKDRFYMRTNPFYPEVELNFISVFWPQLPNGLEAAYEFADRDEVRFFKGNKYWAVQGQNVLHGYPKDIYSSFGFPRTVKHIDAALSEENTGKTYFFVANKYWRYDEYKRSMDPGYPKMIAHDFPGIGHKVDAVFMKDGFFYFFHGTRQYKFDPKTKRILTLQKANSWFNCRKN
The note with it: cited from earlier work; for pIC50: IA = inactive.

The target of a further assay is MMP-3 (Homo sapiens, UniProt P08254). The note with it: cited from earlier work.
Assay [1] concerns MMP-2.
Assay [2] deals with MMP-2. As to conditions: cited from earlier work.
For the next assay, the target named is MMP-9 (Homo sapiens, UniProt P14780). As to conditions: cited from earlier work.
Another assay has as its target MMP-8 (Homo sapiens, UniProt P22894). The note with it: cited from earlier work.
For assay [3] the following is noted: cited from earlier work; for inhibiting femoral lesions: guinea pig model of osteoarthritis; for activity in the guinea pig model of osteoarthritis (in words): in vivo.
For assay [4] the following is noted: in vivo; cited from earlier work.
The conditions of assay [5]: in vivo; cited from earlier work. This is another data set of the same source.
In the next assay the test system is MMPs. As to conditions: cited from earlier work.
The conditions of assay [6]: from MBP-sensitized splenocytes; cited from earlier work.
A further assay concerns the target MMP-13 (Homo sapiens, UniProt P45452). The note with it: cited from earlier work.
A further assay deals with stromelysin. As to conditions: dosed orally at 30 mg/kg in rabbits injected with stromelysin; cited from earlier work.

Sequence of MMP-9 (P14780 94-707, species assumed): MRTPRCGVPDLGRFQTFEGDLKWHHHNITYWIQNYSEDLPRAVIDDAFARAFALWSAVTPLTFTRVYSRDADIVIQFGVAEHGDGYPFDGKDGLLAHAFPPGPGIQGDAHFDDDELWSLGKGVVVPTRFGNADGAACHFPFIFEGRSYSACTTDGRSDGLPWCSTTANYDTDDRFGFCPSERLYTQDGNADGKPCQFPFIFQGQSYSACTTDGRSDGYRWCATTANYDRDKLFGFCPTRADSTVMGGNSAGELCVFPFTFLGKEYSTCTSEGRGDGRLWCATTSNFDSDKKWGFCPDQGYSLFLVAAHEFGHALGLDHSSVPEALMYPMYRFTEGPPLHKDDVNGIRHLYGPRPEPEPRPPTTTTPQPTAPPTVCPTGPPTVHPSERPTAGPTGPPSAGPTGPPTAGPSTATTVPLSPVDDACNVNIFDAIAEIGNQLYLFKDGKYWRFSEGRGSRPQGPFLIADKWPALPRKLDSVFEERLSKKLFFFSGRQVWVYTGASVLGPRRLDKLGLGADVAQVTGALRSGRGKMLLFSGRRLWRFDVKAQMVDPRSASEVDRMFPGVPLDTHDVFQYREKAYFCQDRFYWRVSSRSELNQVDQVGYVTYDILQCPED
Sequence of MMP-8 (P22894 101-467, species assumed): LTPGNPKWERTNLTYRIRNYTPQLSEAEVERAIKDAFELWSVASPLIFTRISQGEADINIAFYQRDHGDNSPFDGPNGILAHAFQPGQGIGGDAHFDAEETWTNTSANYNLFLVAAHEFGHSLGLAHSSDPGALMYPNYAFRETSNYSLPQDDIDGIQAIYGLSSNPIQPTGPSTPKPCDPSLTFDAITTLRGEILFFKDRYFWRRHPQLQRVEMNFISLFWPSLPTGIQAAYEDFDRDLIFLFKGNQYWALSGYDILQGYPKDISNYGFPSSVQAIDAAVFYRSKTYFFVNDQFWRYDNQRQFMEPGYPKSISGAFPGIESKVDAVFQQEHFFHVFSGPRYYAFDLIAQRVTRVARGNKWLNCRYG
Sequence of MMP-3 (P08254 100-477, species assumed): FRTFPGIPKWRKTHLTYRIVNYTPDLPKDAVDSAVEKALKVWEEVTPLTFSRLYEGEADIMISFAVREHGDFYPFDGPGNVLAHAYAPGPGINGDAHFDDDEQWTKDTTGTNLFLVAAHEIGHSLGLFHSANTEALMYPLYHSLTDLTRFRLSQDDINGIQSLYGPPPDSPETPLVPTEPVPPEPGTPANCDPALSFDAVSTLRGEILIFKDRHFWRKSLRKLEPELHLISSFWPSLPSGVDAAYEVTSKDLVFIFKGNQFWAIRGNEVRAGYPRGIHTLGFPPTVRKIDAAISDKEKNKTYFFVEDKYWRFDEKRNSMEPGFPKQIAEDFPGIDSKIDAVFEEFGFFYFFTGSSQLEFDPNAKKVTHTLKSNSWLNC

A word on the pIC50: it is the IC50 on a negative log10 scale, so that one unit is a factor of ten. Regarding `O=C(C[C@@H](CCCc1ccccc1)C(=O)N[C@@H](CC1CCCCC1)C(=O)NCCc1ccccc1)NO` [Compound 17], the pIC50 at MMP-1 is 6.69. In addition, the pIC50 on MMP-3 is 8.08. Further, in the assay with MMP-2 [1], the “selectivity for MMP-2 over MMP-1” value is 10,000 fold and the “selectivity for MMP-2 over MMP-3” value came out at 100 fold.
Turning to `CCCc1ccc(CCC(CC(CCCCN2C(=O)c3ccccc3C2=O)C(=O)O)C(=O)NC(CC(C)C)C(=O)Nc2ccccc2)cc1` (stereo not drawn) [Compound 32], the pIC50 on MMP-1 was less than 5.00; at MMP-3, 10.44; with MMP-2 [2], 8.24.
As to `CNC(=O)[C@H](Cc1ccccc1)NC(=O)[C@H](CC(C)C)N[C@@H](CCN1C(=O)c2cc3ccccc3c(OC)c2C1=O)C(=O)O` [Compound 29], the pIC50 at MMP-9 was 8.15; on MMP-1 it was 7.27; on MMP-3, 5.85.
Regarding `CCCNC(=O)CCC[C@H](CC(=O)NO)C(=O)N[C@@H](Cc1ccccc1)C(=O)NC` [Compound 6], the pIC50 was 5.29 on MMP-1 and 8.70 on MMP-8.
`O=C(CC(CCc1ccccc1)C(=O)O)c1ccc(-c2ccc(OCc3ccccc3)cc2)cc1` (stereo not drawn) [Compound 43]: the results for the pIC50 on MMP-9, on MMP-3 and in the assay with MMP-2 [2] were 5.49, 7.77 and 7.85, respectively. Further, in assay [3], the inhibiting femoral lesions is listed as 37.8%. Besides, the “activity in the guinea pig model of osteoarthritis (in words)” value (“activity in the guinea pig model” below) in [3] was “active”.
As for `O=C(CC(CCN1C(=O)c2ccccc2C1=O)C(=O)O)c1ccc(-c2ccc(OCc3ccccc3)cc2)cc1` (stereo not drawn) [Compound 44], the negative-log IC50 (pIC50) on MMP-9 was 8.82; at MMP-3, 8.24; with MMP-2 [2], 9.04. In addition, the “antimetastatic effect, tail vein metastasis model” value in assay [4] is listed as “antimetastatic”. The “antimetastatic effect, spontaneous metastasis model” value in assay [5] is listed as “antimetastatic”. The inhibiting femoral lesions in assay [3] is 53%. Moreover, the “activity in the guinea pig model” value in [3] is reported as “active”.
Regarding `CNC(=O)[C@H](Cc1ccccc1)NC(=O)[C@H](CCCC(=O)NCCc1ccccc1)CC(=O)NO` [Compound 7], the pIC50 was 5.89 at MMP-1 and 7.49 on MMP-8.
Consider `CO[C@H]1[C@H](O[C@@H]2c3c(cc4c(c3O)C(=O)c3c(O)cccc3C4=O)C(=O)[C@@](C)(O)[C@H]2OC)O[C@@H](C)[C@H](O)[C@H]1O` [Compound 46, aranciamycin], for which the “inhibition of MMPs (in words)” value with MMPs was “weak inhibitors”.
On to `CC(=O)NC(CS)C(=O)NC(Cc1ccccc1)C(N)=O` (stereo not drawn) [Compound 34] (Ac-Cys-Phe-NH2; configuration not given here), for which, at MMP-1, the pIC50 was less than 4.00 and the “inhibition of MMP-1 (in words)” value was “did not inhibit”.
For the compound `CCCCCCCCCCCC[C@H](CC(=O)O)C(=O)N[C@@H](Cc1ccccc1)C(=O)NC` [Compound 11], the “MMP-1 % @ 100 µM” value at MMP-1 (@ 100 µM) is 30% @ 100 µM.
Take `CC(C)CC(NC(CCN1C(=O)c2cc3ccccc3cc2C1=O)C(=O)O)C(=O)NCCc1ccccc1` (stereo not drawn) [Compound 30]: the pIC50 was 7.46 at MMP-9, 6.80 at MMP-1 and less than 5.00 in the assay with MMP-2 [2].
Consider `CC(C)CC(NC(=O)C(CCc1ccccc1)NC(CCCCN1C(=O)c2ccccc2C1=O)C(=O)O)C(=O)Nc1ccccc1` (stereo not drawn) [Compound 27], for which the pIC50 on MMP-1 is 6.14; at MMP-3 it was 8.10; in the assay on MMP-2 [2], 7.07.
On to `CC(=O)NC1C(O)CC(Cc2cc3ccc(=O)oc3cc2OC(=O)N(C)C)C(O)C1O` (stereo not drawn) [Compound 49], for which, at MMP-1, the “inhibition of MMP-1 (in words)” value is “weak inhibitors”.
Turning to `CNC(=O)[C@@H](NC(=O)[C@@H](CC(=O)NO)CC(C)C)C(C)(C)C` [RO 31-9790], the “protection in adoptively transferred EAE” value in assay [6] is “protect”.
In the case of `O=C(C[C@@H](CCCc1ccc(Cl)cc1)C(=O)N[C@@H](CC1CCCCC1)C(=O)NCCNS(=O)(=O)N1CCOCC1)NO` [Compound 18], the pIC50 was 10.80 on MMP-9, 6.41 at MMP-1 and greater than 11.00 in the assay on MMP-2 [2]. Moreover, at MMP-13, the “inhibition of MMP-13 (in words)” value is given as “potently inhibits”.
Take `NC(=O)C(Cc1ccccc1)NC(=O)C(CS)NC(=O)C(F)(F)F` (stereo not drawn) [Compound 33] (Tfa-Cys-Phe-NH2; configuration not given here): the pIC50 at MMP-1 is 7.40.
For the compound `CCCCCCCCC(NC(C)C(=O)O)C(=O)NC(CC(C)C)C(=O)Nc1ccccc1` (stereo not drawn) [Compound 24], the pIC50 is less than 5.00 on MMP-1, 6.24 on MMP-3 and 6.47 in the assay with MMP-2 [2].
Consider `COc1ccc(S(=O)(=O)N(Cc2cccnc2)[C@@H](C(=O)NO)C(C)C)cc1` [Compound 40], for which the proteoglycan break down entry in the assay on stromelysin is on record as “blocks proteoglycan break down”. Also, the “activity in the guinea pig model” value in [3] is given as “effective”.
`Cc1ccc(CCC[C@H](CC(=O)O)C(=O)N[C@@H](CC2CCCCC2)C(=O)NCCc2ccccc2)cc1` [Compound 19]: the pIC50 is 4.66 at MMP-1, 6.33 at MMP-3 and 9.00 in the assay on MMP-2 [2].
Take `Cc1ccc(CCCC(CP(=O)(O)O)C(=O)NC(CC2CCCCC2)C(=O)NCCc2ccccc2)cc1` (stereo not drawn) [Compound 37]: the pIC50 at MMP-1 was 4.77; on MMP-3 it was 6.56; in the assay on MMP-2 [2], 8.60.
In the case of `CNC(=O)[C@H](Cc1ccccc1)NC(=O)[C@H](CC(C)C)N[C@@H](CCN1C(=O)c2cc3ccccc3cc2C1=O)C(=O)O` [Compound 28], the figures for the pIC50 at MMP-9, on MMP-1 and on MMP-3 were 8.30, 7.70 and 7.04, respectively.
As for `CNC(=O)[C@H](Cc1ccccc1)NC(=O)[C@H](CCCOCc1ccccc1)CC(=O)NO` [Compound 8], the pIC50 on MMP-1 is 5.64.
For the compound `CNC(=O)[C@H](Cc1ccccc1)NC(=O)[C@H](CCCCO)CC(=O)NO` [Compound 5], the figures for the pIC50 on MMP-1 and at MMP-8 were 7.19 and 8.15, respectively.
Turning to `CC(C)C[C@H](N[C@@H](CCN1C(=O)c2cc3ccccc3cc2C1=O)C(=O)O)C(=O)NCc1ccc(C(=O)O)cc1` [Compound 31], the negative-log IC50 (pIC50) is 7.13 on MMP-9, 7.25 at MMP-1 and 6.75 in the assay on MMP-2 [2].
Turning to `NC(=O)C(Cc1ccccc1)NC(=O)C(CS)NC(=O)CCc1ccccc1` (stereo not drawn) [Compound 35] (Hydrocinnamoyl-Cys-Phe-NH2; configuration not given here), the pIC50 was 5.46 at MMP-1 and 7.42 on MMP-8.
As to `COC(=O)c1cccc2c1C(=O)c1c(C(=O)OC)cc(C(=O)O)cc1C2=O` [Compound 48], the “inhibition of MMP-1 (in words)” value at MMP-1 is recorded as “MMP-1 inhibitors”.
